Structures can show the parent of a compound that is named as a salt.
Biological target: T1, proton pump (H+/K+-ATPase) (UniProt P19156)
T1 construct: The gastric vesicle as an enzyme source was prepared by the same method as in the Experiment 1—1 of WO 94/14795
Assay: Inhibition of proton pump (H+/K+-ATPase) activity, gastric vesicle enzyme source
Format: biochemical
Conditions: pH 6.4, 37° C., 30 min preincubation, linear regression over 5 concentrations, read-out: IC50, inhibitory effects on proton pump (H+/K+-ATPase) activity
Method: Test Example 1: Inhibition of proton pump (H^+/K^+-ATPase) activity
The gastric vesicle as an enzyme source was prepared by the same method as in the Experiment 1—1 of WO 94/14795. Further, the inhibitory effect of proton pump activity was measured by the same method as in Experiment 1-2 of WO 94/14795.
Namely, the proton pump activity stimulated by Mg^++ was used as a negative control group, and the activity stimulated by Mg^++ and K^+ was used as a positive control group. Omeprazole was used as the control compound.
Test tubes were divided into 4 groups: Group 1 as negative control group (n=3), Group 2 as positive control group (n=3), Group 3 (n=5×2) to be administered with the compound of the present invention and Group 4 (n=5×2) to be administered with the control compound.
The inhibitory effects of Group 3 and 4 on proton pump activity were measured by employing the compounds prepared in Examples and omeprazole, respectively, each of which was dissolved in dimethyl sulfoxide (DMSO) at 5 different concentrations.
To each of Groups 1, 2, 3, and 4 was added 0.1 ml of magnesium chloride (4 mM) dissolved in 40 mM Tris-HCl buffer (pH 6.4) and 100 μg of enzyme source. The 50 μl of potassium chloride (60 mM) and 50 μl of ammonium chloride (6 mM) dissolved in 40 mM Tris-HCl buffer (pH 6.4) were added to all groups except for Group 1.
10 μl of dimethyl sulfoxide was added to each of Group 1 and 2; and to Group 3 was added […] of dimethyl sulfoxide solution prepared by dissolving compound of Example at 5 different concentrations (n=5×2). To Group 4, was added 10 μl of the solution prepared by dissolving omeprazole in dimethyl sulfoxide at 5 different concentrations (40, 20, 10, 5, 2.5 μM) (n=5×2). […] Tris-HCl buffer (pH 6.4) was added thereto so as to make the total volume 400 μl.
Thereafter the test tubes of each Group were placed at 37° C. for 30 minutes for the preincubation. ATP solution (6.6 mM) was added until the total volume became 500 μl. After the reaction was carried out at 37° C. for 30 minutes, 25% cold trichloroactic acid was added to terminate the enzyme reaction. The released inorganic phosphorous was measured by an automatic analyzer (Express 550, Corning).
The difference between Group 1 and Group 2 represents the proton pump activity activated by K^+ only. The IC50s of Group 3 and 4 were calculated using the Linear Regression method. The concentrations of the test compounds inhibiting 50% of the proton pump activity are represented as IC50 in Table 1.

SMILES	IC50 [nM]
COc1ccc2[nH]c([S+]([O-])Cc3ncc(C)c(OC)c3C)nc2c1 (centres unmarked) [Omeprazole, reference compound]	11500
Cc1nc(Nc2ccccc2F)nc(N2CCc3ccc(F)cc3C2C)c1C (centres unmarked) [Example 11, 5,6-dimethyl-2-(2-fluorophenylamino)-4-(1-methyl-7-fluoro-1,2,3,4-tetrahydroisoquinolin-2-yl)pyrimidine hydrochloride]	1900
Cc1nc(Nc2ccc(F)cc2)nc(N2CCc3ccccc3C2CF)c1C (centres unmarked) [Example 26, 5,6-dimethyl-2-(4-fluorophenylamino)-4-(1-fluoromethyl-1,2,3,4-tetrahydroisoquinolin-2-yl)pyrimidine hydrochloride]	3700
Cc1nc(Nc2ccc(Cl)cc2)nc(N2CCc3ccc(F)cc3C2C)c1C (centres unmarked) [Example 9, 5,6-dimethyl-2-(4-chlorophenylamino)-4-(1-methyl-7-fluoro-1,2,3,4-tetrahydroisoquinolin-2-yl)pyrimidine hydrochloride]	900
Cc1nc(Nc2ccc(F)cc2F)nc(N2CCc3cc(F)ccc3C2C)c1C (centres unmarked) [Example 19, 5,6-dimethyl-2-(2,4-difluorophenylamino)-4-(1-methyl-6-fluoro-1,2,3,4,-tetrahydroisoquinolin-2-yl)pyrimidine hydrochloride]	1000
Cc1nc(Nc2ccc(F)cc2F)nc(N2CCc3c(Cl)cccc3C2C)c1C (centres unmarked) [Example 39, 5,6-dimethyl-2-(2,4-difluorophenylamino)-4-(1-methyl-5-chloro-1,2,3,4-tetrahydroisoquinolin-2-yl)pyrimidine hydrochloride]	900
Cc1nc(Nc2ccc(F)c(F)c2)nc(N2CCc3ccc(F)cc3C2C)c1C (centres unmarked) [Example 7, 5,6-dimethyl-2-(3,4-difluorophenylamino)-4-(1-methyl-7-fluoro-1,2,3,4-tetrahydroisoquinolin-2-yl)pyrimidine hydrochloride]	2600
Cc1nc(Nc2ccc(Cl)cc2)nc(N2CCc3cc(F)ccc3C2C)c1C (centres unmarked) [Example 20, 5,6-dimethyl-2-(4-chlorophenylamino)4-(1-methyl-6-fluoro-1,2,3,4-tetrahydroisoquinolin-2-yl)pyrimidine hydrochloride]	1200
Cc1nc(Nc2ccc(F)cc2F)nc(N2CCc3ccccc3C2C)c1C (centres unmarked) [Example 2, 5,6-dimethyl-2-(2,4-difluorophenylamino)-4-(1-methyl-1,2,3,4-tetrahydroisoquinolin-2-yl)pyrimidine hydrochloride]	3800
Cc1nc(Nc2ccc(F)cc2)nc(N2CCc3ccccc3C2C)c1CF (centres unmarked) [Example 25, 5-fluoromethyl-6-methyl-2-(4-fluorophenylamino)-4-(1-methyl-1,2,3,4-tetrahydroisoquinolin-2-yl)-pyrimidine hydrochloride]	4100
Cc1nc(Nc2ccccc2)nc(N2CCc3ccc(F)cc3C2C)c1C (centres unmarked) [Example 4, 5,6-dimethyl-2-phenylamino-4-(1-methyl-7-fluoro-1,2,3,4-tetrahydroisoquinolin-2-yl)pyrimidine hydrochloride]	1000
Cc1nc(Nc2ccc(F)c(F)c2)nc(N2CCc3ccccc3C2C)c1C (centres unmarked) [Example 1, 5,6-dimethyl-2-(3,4-difluorophenylamino)-4-(1-methyl-1,2,3,4-tetrahydroisoquinolin-2-yl)pyrimidine hydrochloride]	1600
Cc1nc(Nc2ccc(F)cc2)nc(N2CCc3c(Cl)cccc3C2C)c1C (centres unmarked) [Example 35, 5,6-dimethyl-2-(4-fluorophenylamino)-4-(1-methyl-5-chloro-1,2,3,4-tetrahydroisoquinolin-2-yl)pyrimidine hydrochloride]	900
Cc1nc(Nc2cccc(F)c2)nc(N2CCc3ccc(F)cc3C2C)c1C (centres unmarked) [Example 12, 5,6-dimethyl-2-(3-fluorophenylamino)4-(1-methyl-7-fluoro-1,2,3,4-tetrahydroisoquinolin-2-yl)pyrimidine hydrochloride]	3200

More lines, in order of falling IC50, values ahead:

IC50 [nM]	SMILES
900	Cc1c(CF)nc(Nc2ccc(F)cc2)nc1N1CCc2ccccc2C1C (centres unmarked) [Example 24, 5-methyl-6-fluoromethyl-2-(4-fluorophenylamino)-4-(1-methyl-1,2,3,4-tetrahydroisoquinolin-2-yl)-pyrimidine hydrochloride]
700	Cc1nc(Nc2ccc(F)cc2F)nc(N2CCc3ccc(F)cc3C2C)c1C (centres unmarked) [Example 8, 5,6-dimethyl-2-(2,4-difluorophenylamino)-4-(1-methyl-7-fluoro-1,2,3,4-tetrahydroisoquinolin-2-yl)pyrimidine hydrochloride]
700	Cc1nc(Nc2ccc(F)cc2)nc(N2CCc3cc(F)ccc3C2C)c1C (centres unmarked) [Example 14, 5,6-dimethyl-2-(4-fluorophenylamino)-4-(1-methyl-6-fluoro-1,2,3,4-tetrahydroisoquinolin-2-yl)pyrimidine hydrochloride]
600	Cc1ccccc1Nc1nc(C)c(C)c(N2CCc3ccc(F)cc3C2C)n1 (centres unmarked) [Example 5, 5,6-dimethyl-2-(2-methylphenylamino)-4-(1-methyl-7-fluoro-1,2,3,4-tetrahydroisoquinolin-2-yl)pyrimidine hydrochloride]
300	Cc1cc(F)ccc1Nc1nc(C)c(C)c(N2CCc3ccc(F)cc3C2C)n1 (centres unmarked) [Example 6, 5,6-dimethyl-2-(2-methyl-4-fluorophenylamino)-4-(1-methyl-7-fluoro-1,2,3,4-tetrahydroisoquinolin-2-yl)pyrimidine hydrochloride]
200	Cc1cc(F)ccc1Nc1nc(C)c(C)c(N2CCc3cc(F)ccc3C2C)n1 (centres unmarked) [Example 17, 5,6-dimethyl-2-(2-methyl-4-fluorophenylamino)-4-(1-methyl-6-fluoro-1,2,3,4-tetrahydroisoquinolin-2-yl)pyrimidine hydrochloride]

Reference: patent publication US6545008B1, “Pyrimidine derivatives and processes for the preparation thereof” (Yuhan Corporation, priority 1998, dated 2003)
